In patent publication US20240317722A1, “HETEROARYL-3-PIPERIDINEDIONE COMPOUND AND USE THEREOF” (Medshine Discovery Inc., priority 2021, published 2024):
Like-named read-outs stand apart in the source and are kept apart here.

What was measured:
MV4-11 = assay: Anti-proliferative effect in MV4-11 (CellTiter-Glo); format: cell-based; conditions: MV4-11, 3 days; for IC50: Homo sapiens, 72 h
Protocol: (§1) This assay studied the inhibitory effect of the compounds on cell proliferation by detecting the effect of the test compounds on the in vitro activity of tumor cells MV4-11 and MDA-MB-231.
(§2) The tumor cell lines were cultured in an incubator at 37° C., 5% CO2 or 0% CO2according to the above culture conditions. The cells were periodically passaged, and cells in logarithmic growth phase were taken for plating. • 2. Cell plating • (1). Cells were stained with trypan blue and viable cells were counted. • (2).
(§3) • (3). 90 μL of cell suspension was added to each well of the culture plate, and culture medium without cells was added to the blank control well. • (4). The plate was incubated overnight in an incubator at 37° C., 5% CO2 or 0% CO2, and 100% relative humidity. • 3. Preparation of a compound storage plate
(§4) Preparation of a 400× compound storage plate: The compounds were diluted with DMSO in a gradient from the highest concentration to the lowest concentration. The plates were prepared freshly at each time for use. • 4. Preparation of 10× compound working solution and treatment of cells with compounds • (1). Preparation of 10× compound working solution: compound or DMSO was added, and the well content was mixed to uniform by aspiration and expelling with pipette. 78 μL of cell culture medium was added to a 96-well plate with a V-shaped bottom. 2 μL of the compound from the 400× compound storage plate was added to the cell culture medium in the 96-well plate. 2 μL of DMSO was added to the vehicle control and the blank control. After adding compound or DMSO, the well content was mixed to uniform by aspiration and expelling with pipette. • (2). Dosing: 10 μL of 10× compound working solution was added to the cell culture plate. 10 μL of DMSO-cell culture mix solution was added to the vehicle control and blank control. • (3). The 96-well cell plate was placed back into the incubator and cultured for 3 days. • 5. CellTiter-Glo luminescence cell viability detection
The following steps were performed according to the instruction of Promega CellTiter-Glo luminescence cell viability detection kit (Promega-G7573). • (1). The CellTiter-Glo buffer was thawed and allowed to stand to reach room temperature; • (2). CellTiter-Glo substrate was allowed to stand to reach room temperature; • (3). 10 mL of CellTiter-Glo buffer was added to CellTiter-Glo substrate in a bottle to dissolve the substrate to formulate CellTiter-Glo working solution; • (4). The working solution was vortexed slowly for fully dissolution; • (5). […] The culture plates were left at room temperature for 10 minutes to stabilize the luminescence signal; • (9). The luminous signal was detected on the 2104 En Vision plate reader. • 6. […]

MDA-MB-231 = assay: Anti-proliferative effect in MDA-MB-231 (CellTiter-Glo); format: cell-based, human; conditions: MDA-MB-231, 3 days; for IC50: Homo sapiens, 72 h
Protocol: as §1, §2, §3, §4
The following steps were performed according to the instruction of Promega CellTiter-Glo luminescence cell viability detection kit (Promega-G7573). • (1). The CellTiter-Glo buffer was thawed and allowed to stand to reach room temperature; • (2). CellTiter-Glo substrate was allowed to stand to reach room temperature; • (3). 10 mL of CellTiter-Glo buffer was added to CellTiter-Glo substrate in a bottle to dissolve the substrate to formulate CellTiter-Glo working solution; • (4). The working solution was vortexed slowly for fully dissolution; • (5). The cell culture plates were taken out and allowed to stand for 30 minutes to equilibrate to room temperature; • (6). 50 μL (equal to half the volume of cell culture solution in each well) of Cell Titer-Glo working solution was added into each well. The cell plate was wrapped with aluminum foil to protect the cell plate from light; • (7). The culture plates were shaken on an orbital shaker for 2 minutes to induce cell lysis; • (8). The culture plates were left at room temperature for 10 minutes to stabilize the luminescence signal; • (9). The luminous signal was detected on the 2104 En Vision plate reader. • 6. Data analysis
The following formula was used to calculate the inhibition rate (IR) of the test compounds: IR (%)=(RLU of the vehicle control−RLU of the compound)/(RLU of the vehicle control−RLU of the blank control)*100%. The inhibition rates of the compounds at different concentrations were calculated in Excel, and then GraphPad Prism software was used to graph the inhibition curves and calculate the relevant parameters, including the minimum inhibition rate, maximum inhibition rate and IC50.

GSPT1 [1] = target: T1, GSPT1 (Homo sapiens, UniProt P15170+Q96SW2); assay: Effect of degrading GSPT1 protein (Western blot) in BxPC-3 cells; format: cell-based; parameters: endogenous in cells; host or cells: BxPC-3; conditions: 10 μM, 1 μM and 0.1 μM, 24 hours, Western blot (FIG. 1)
Protocol: BxPC-3 cells were treated with 10 μM, 1 μM and 0.1 μM of the test compound respectively for 24 hours. The cells were collected and lysed, denatured at 100° C. for 20 minutes, and then subjected to Western blot analysis. β-actin was used as the internal reference protein to detect the protein level of GSPT1. The main steps included: 1) Electrophoresis: Biorad precast gel was used to separate proteins using SDS-PAGE electrophoresis; 2) Transfer to membrane: Biorad rapid transfer to membrane system was used to transfer the proteins on the gel to PVDF membrane; 3) Blocking: the PVDF membrane with Western blotting was placed into an antibody incubation box, and blocking solution was added to completely cover the PVDF membrane for incubation at room temperature for 1 hour; 4) Incubation of the primary antibody: the above PVDF membrane was covered with GSPT1 antibody diluent, and incubated on a shaker at 4° C. overnight, 5) Incubation of the secondary antibody: the membrane was washed three times with Wash buffer, and secondary antibody diluent (Anti-rabbit IgG, HRP-linked) was added for incubation on a shaker at room temperature for 1 hour; 5) Exposure: the membrane was washed three times with Wash buffer, and the band on the membrane was detected using chemiluminescence method (Clarity Western ECL Substrate).

[2] = Pharmacokinetics of compounds in mice; format: in vivo, C57BL/6N mice; conditions: for bioavailability / clearance / Vd / half-life: male, C57BL/6N, mouse, plasma; for bioavailability: read-out: Bioavailability F; for Vd: read-out: Apparent volume of distribution; for half-life: read-out: Elimination half-life (converted)
Description: In this study, C57BL/6N male mice were selected as the test animals, and the LC/MS/MS method was used to quantitatively determine the drug concentration in the plasma of mice intravenously or orally administered the test compounds, so as to evaluate the pharmacokinetic profile of the test compounds in mice.
C57BL/6N mice (male, 20-30 g, 7-10 weeks old, Beijing Vital River).
A clear solution or suspension of the test compound was intravenously injected into C57BL/6N mice (fasted overnight) via tail or given to C57BL/6N mice (fasted overnight) by gavage. For intravenous injection administration, blood was collected from the cheek at 0 h (before administration) and 0.083, 0.25, 0.5, 1, 2, 4, 6, 8, and 24 h after administration. Each sample was collected about 0.05 mL. Heparin sodium was added to anti-coagulate. Plasma samples were collected and placed on wet ice, and centrifuged within 1 hour to separate the plasma (centrifugation conditions: 6000 g, 3 minutes, 2-8° C.). Blood samples were stored in a −80° C. refrigerator before analysis; For oral gavage administration, blood was collected from the cheek at 0 h (before administration) and 0.083, 0.25, 0.5, 1, 2, 4, 6, 8, 24 h after administration. Each sample was collected about 0.05 mL. Heparin sodium was added to anti-coagulate. Plasma samples were collected and placed on wet ice, and centrifuged within 1 hour to separate the plasma (centrifugation conditions: 6000 g, 3 minutes, 2-8° C.). Blood samples were stored in a −80° C. refrigerator before analysis. Through blood drug concentration data at different time points, Phoenix WinNonlin8.2.0 was used to calculate pharmacokinetic parameters, providing parameters such as AUC0-t, AUC0-∞, MRT0-∞, Cmax, Tmax, and T1/2, etc. and their mean and standard deviation.

GSPT1 [3] = target: T1, GSPT1; assay: Target protein degradation in HEK293T-LgBiT_GSPT1-nHiBiT cells (HiBiT luminescence); format: cell-based; parameters: expressed in transfected cells; conditions: 16 to 18 hours; for Dmax: read-out: Max. DR (maximum degradation rate)
Protocol: This assay was performed to detect the degradation effect of the test compound on the target protein GSPT1 in HEK293T-LgBiT cells.
• 1. Preparation of compounds • (1). Dissolving the powder of the test compound with DMSO to 10 mM as the storage concentration, and using a pipette to manually draw 9 μL of 10 mM or 3 mM test compound to columns 1 and 13 of a LDV plate; • (2). Using multidrop Combi to add 6 μL of DMSO to columns 2-12 and 14-24; • (3). Using Bravo to dilute the test compound 3 times (3 μL+6 μL) from columns 1 to 11 and 13 to 23; • (4). According to the layout of the plate, using Echo to transfer 25 nL of compound solution (columns 1-24 of the LDV plate) to the assay plate; • (5). Using Echo to transfer 25 nL of 1 mM positive control solution to the assay plate as a 100% degradation control (i.e. LC, HPE), and to transfer 25 nL of DMSO to the assay plate as a 0% control (i.e. HC, ZPE). • 2. Cell plating • (1). Discarding the cell culture medium, and washing the cells once with DPBS; then the cells were trypsinized, counted, and used to prepare a cell suspension of 4×10^5 cells/mL; • (2). Using MultiDrop Combi to add 25 μL/well of cell suspension at medium speed to the assay plate containing the test compound; • (3). Putting the assay plate containing cells back into the incubator and culturing it at 37° C. and 5% CO2 for 16 to 18 hours.
• (1). Using MultiDrop Combi to add 25 μL/well of detection reagent (NanoGlo lysis solution+substrate+LgBit protein) to the assay plate at high speed, and shaking for 10 minutes; • (2). Centrifuging at 2000 rpm×1 min to remove bubbles; • (3). Reading the plate using Envision, US Luminescence detection method.
The following formula was used to calculate the degradation rate (DR) of the test compound: DR (%)=(RLU of vehicle control−RLU of compound)/(RLU of vehicle control−RLU of positive control)*100%, wherein the vehicle control was a blank control. The degradation rates of compounds at different concentrations were calculated in Excel, and then XLFit software was used to obtain inhibition curves and to calculate relevant parameters, including the minimum degradation rate, maximum degradation rate and DC50.

[4] = administration by gavage, 10 mg/kg

T1 sequence (P15170 whole entry): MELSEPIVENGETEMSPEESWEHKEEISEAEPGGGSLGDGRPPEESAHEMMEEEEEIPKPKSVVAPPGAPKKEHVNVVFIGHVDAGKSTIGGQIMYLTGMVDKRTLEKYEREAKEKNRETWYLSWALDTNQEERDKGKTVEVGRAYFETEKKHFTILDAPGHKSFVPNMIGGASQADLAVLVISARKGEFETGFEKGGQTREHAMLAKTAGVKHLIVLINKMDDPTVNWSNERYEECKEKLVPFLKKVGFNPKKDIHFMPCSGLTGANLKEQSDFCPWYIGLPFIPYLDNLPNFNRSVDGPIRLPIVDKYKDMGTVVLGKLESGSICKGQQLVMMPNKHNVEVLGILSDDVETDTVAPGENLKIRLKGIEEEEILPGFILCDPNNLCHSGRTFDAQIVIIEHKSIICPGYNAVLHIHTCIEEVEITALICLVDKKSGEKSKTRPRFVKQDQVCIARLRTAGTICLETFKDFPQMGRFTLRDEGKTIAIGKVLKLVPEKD
T1 sequence (Q96SW2 whole entry): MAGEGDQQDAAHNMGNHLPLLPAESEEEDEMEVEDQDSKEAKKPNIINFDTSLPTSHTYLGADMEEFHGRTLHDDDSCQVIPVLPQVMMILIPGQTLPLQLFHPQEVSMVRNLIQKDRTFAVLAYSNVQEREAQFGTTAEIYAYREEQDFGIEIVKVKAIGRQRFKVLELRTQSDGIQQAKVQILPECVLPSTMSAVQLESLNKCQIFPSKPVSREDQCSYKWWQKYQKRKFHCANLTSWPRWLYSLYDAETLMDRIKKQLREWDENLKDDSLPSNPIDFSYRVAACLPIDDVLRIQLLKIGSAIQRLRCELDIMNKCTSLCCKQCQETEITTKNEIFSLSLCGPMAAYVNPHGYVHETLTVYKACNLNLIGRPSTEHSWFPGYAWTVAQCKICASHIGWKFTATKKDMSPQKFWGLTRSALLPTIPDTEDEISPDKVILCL
T1 sequence (Q16531 whole entry partner): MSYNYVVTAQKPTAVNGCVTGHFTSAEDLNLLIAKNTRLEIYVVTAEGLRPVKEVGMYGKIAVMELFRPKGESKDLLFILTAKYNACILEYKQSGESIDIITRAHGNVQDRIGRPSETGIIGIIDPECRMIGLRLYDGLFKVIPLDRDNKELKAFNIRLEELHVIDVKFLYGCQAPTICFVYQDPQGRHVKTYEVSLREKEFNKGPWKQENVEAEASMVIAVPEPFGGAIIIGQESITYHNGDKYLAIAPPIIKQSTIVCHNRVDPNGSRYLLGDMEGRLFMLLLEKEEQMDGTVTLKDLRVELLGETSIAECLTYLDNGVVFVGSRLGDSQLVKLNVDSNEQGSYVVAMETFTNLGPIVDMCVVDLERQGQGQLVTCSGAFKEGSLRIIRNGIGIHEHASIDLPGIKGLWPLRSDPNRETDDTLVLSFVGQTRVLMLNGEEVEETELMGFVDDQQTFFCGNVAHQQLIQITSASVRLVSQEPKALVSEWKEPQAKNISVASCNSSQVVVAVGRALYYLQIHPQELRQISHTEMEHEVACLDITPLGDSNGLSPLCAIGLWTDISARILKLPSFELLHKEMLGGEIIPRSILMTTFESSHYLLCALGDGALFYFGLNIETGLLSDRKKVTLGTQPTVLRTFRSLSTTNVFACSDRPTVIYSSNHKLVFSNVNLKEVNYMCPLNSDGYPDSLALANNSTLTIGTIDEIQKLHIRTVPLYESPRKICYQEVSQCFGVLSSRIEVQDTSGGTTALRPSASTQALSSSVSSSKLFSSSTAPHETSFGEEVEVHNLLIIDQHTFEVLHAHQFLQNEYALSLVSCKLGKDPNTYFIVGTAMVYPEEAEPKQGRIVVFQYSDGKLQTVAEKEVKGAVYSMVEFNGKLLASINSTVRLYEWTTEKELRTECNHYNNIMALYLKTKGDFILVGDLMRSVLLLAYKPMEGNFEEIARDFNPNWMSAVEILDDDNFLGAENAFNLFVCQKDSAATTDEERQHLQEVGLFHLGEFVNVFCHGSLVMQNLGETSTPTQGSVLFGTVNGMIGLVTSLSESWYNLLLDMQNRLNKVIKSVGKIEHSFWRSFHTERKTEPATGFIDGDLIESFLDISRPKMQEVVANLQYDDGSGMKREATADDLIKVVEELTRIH

IC50 (MV4-11) [nM] | IC50 (MDA-MB-231) [nM] | Area under the plasma concentration-time curve (0-inf) [2, 4] [µM·h] | Peak concentration [2, 4] [µM] | Time to peak [2, 4] [h] | Area under the plasma concentration-time curve (0-inf) ([2]; intravenous injection, 1 mg/kg) [µM·h] | bioavailability ([2]; PO 10 mg/kg vs IV 1 mg/kg) [%] | clearance ([2]; intravenous injection, 1 mg/kg) [mL/min/kg] | Vd ([2]; intravenous injection, 1 mg/kg) [L/kg] | half-life ([2]; intravenous injection, 1 mg/kg) [h] | DC50 (GSPT1 [3]) [nM] | Dmax (GSPT1 [3]) [%] | Area under the plasma concentration-time curve (0-inf) ([2]; intravenous injection, 2 mg/kg) [µM·h] | bioavailability ([2]; PO 10 mg/kg vs IV 2 mg/kg) [%] | clearance ([2]; intravenous injection, 2 mg/kg) [mL/min/kg] | Vd ([2]; intravenous injection, 2 mg/kg) [L/kg] | half-life ([2]; intravenous injection, 2 mg/kg) [h] | Structure (SMILES) | Max. IR (maximum inhibition rate) (MV4-11) [%] | Max. IR (maximum inhibition rate) (MDA-MB-231) [%] | effect of promoting the degradation of GSPT1 protein (GSPT1 [1])
30.5 | 57.2 |  |  |  |  |  |  |  |  |  |  |  |  |  |  |  | Cc1ccc(NC(=O)NCc2ccc3occ(C4CCC(=O)NC4=O)c3c2)cc1Cl (stereo not shown) [WX001] | 99.95 | 69.41 | significant effect of promoting the degradation of GSPT1 protein
6 | 52.4 |  |  |  |  |  |  |  |  |  |  |  |  |  |  |  | O=C(COc1cccc(-c2csc(N3CCOCC3)n2)c1)NCCCCCCC(=O)Nc1ccc2c(C3CCC(=O)NC3=O)coc2c1 (stereo not shown) [WX003] | 100.15 | 65.29 | 
 | 4.7 | 2.71 | 1.76 | 0.50 | 1.90 | 14.2 | 15.8 | 2.3 | 3.62 | 1.94 | 99.9 |  |  |  |  |  | Cc1c(Cl)cc(NC(=O)NCc2ccc3c(C4CCC(=O)NC4=O)coc3c2)cc1OCCN1CCOCC1 (stereo not shown) [WX006] |  | 80.3 | 
 |  | 1.99 | 0.69 | 1.08 |  |  |  |  |  | 1.18 | 99.8 | 6.45 | 6.18 | 9.5 | 0.41 | 1.85 | Cc1c(Cl)cc(NC(=O)NCc2ccc3c(C4CCC(=O)NC4=O)noc3c2)cc1OCCN1CCOCC1 (stereo not shown) [WX012] |  |  | 
